Read-outs that look alike come from different tables or passages of the source. Where a SMILES comes first, the peptide text is derived from it. [ ]: non-standard residue; d: D form. pGlu = O=C1CC[C@@H](C(=O)O)N1; Orn = NCCC[C@H](N)C(=O)O
Tests used:
[1] = test system: arterial pressure; details: injected into the femoral vein of rats; cited from earlier work
[2] = test system: bradykinin; test: Effect of decapeptides as bradykinin potentiators (injection into femoral vein soon before bradykinin); format: in vivo, Male C.D. rats; details: for Duration of hypotensive effect (t) / Pressure Difference Maximum / Pressure Difference Minimum: bradykinin potentiation, femoral vein soon before bradykinin; for potentiation of the hypotensive effect / activity of bradykinin (in words): in vivo, male rats
Description: (§1) The activity of the decapeptides of the present invention has been determined in vivo on C.D. male rats available from Charles-River Co., anesthetized by ethyl urethane.
(§2) The effect on the arterial pressure and on bradykinin potentating has been studied by injecting into femoral vein a decapeptide (I) in an amount of from 0.3 to 0.2 mg/kg of body weight.
Male C.D. rats of Charles-River race are treated as described in Example 8, and submitted to test by bradykinin.
Bradykinin is a physiologic peptide which, when injected into femoral vein, causes a fast but not long-lasting hypotensive effect, because it is rapidly degraded at pulmonary circulation level by the Angiotensin Conversion Enzyme (ACE).
The peptides of the present invention are tested by being injected into the right-hand femoral vein soon before bradykinin, and comparing them to the decapeptide of the prior art.

[3] = test system: arterial pressure; test: Effect of the decapeptides on arterial pressure (injection into femoral vein of anaesthetized rats); format: in vivo, C.D. male rats; details: for Duration of hypotensive effect / Pressure Difference Maximum / Pressure Difference Minimum / hypotensive effect (in words): femoral vein; for Duration of hypotensive effect / Pressure Difference Maximum / Pressure Difference Minimum: anaesthetized rats
Description: as §1, §2
Five C.D. male rats available from Charles River Co., of weight of 200-300 g, anaesthetized by ethyl urethane (1.75 g/kg by intraperitoneal way) are used.
After tracheal cannulating, the right-hand carotid artery is isolated and connected by cannula to a Hewlett-Packard Model 1280 pressure transducer.
From isolated left-hand carotid the arterial flow is recorded by means of Biotronex® electromagnetic flowmeter, and pressure variation wiith the (dp/dt), electrocardiogram (ECG) and the beats per minute (BPM) are recorded on Hewlett Packard Polygraph.
The decapeptides of the present invention have been tested by being injected into right-hand femoral vein at the dose of 0.3-0.2 mg/kg of body weight, and compared to the decapeptide (II) of the prior art.

[4] = test system: arterial pressure; details: cited from earlier work

Compound	lowering in arterial pressure [1]	potentiation of the activity of bradykinin [1]	Duration of hypotensive effect (t) ([2]; 0.3 mg/kg) [min]	Pressure Difference Maximum ([2]; 0.3 mg/kg) [mmHg]	Pressure Difference Minimum ([2]; 0.3 mg/kg) [mmHg]	Duration of hypotensive effect ([3]; 0.3 mg/kg) [min]	Pressure Difference Maximum ([3]; 0.3 mg/kg) [mmHg]	Pressure Difference Minimum ([3]; 0.3 mg/kg) [mmHg]	Duration of hypotensive effect (t) ([2]; 0.2 mg/kg) [min]	Pressure Difference Maximum ([2]; 0.2 mg/kg) [mmHg]	Pressure Difference Minimum ([2]; 0.2 mg/kg) [mmHg]	potentiation of the hypotensive effect / activity of bradykinin (in words) [2]	Duration of hypotensive effect ([3]; 0.2 mg/kg) [min]	Pressure Difference Maximum ([3]; 0.2 mg/kg) [mmHg]	Pressure Difference Minimum ([3]; 0.2 mg/kg) [mmHg]	hypotensive effect (in words) ([3]; in vivo, male rats)	antihypertensive action ([4]; administered orally)	antihypertensive action ([4]; intravenous administration)	eurhythmizing effect ([3]; in vivo, male rats)
CC[C@H](C)[C@H](NC(=O)[C@H](CCC(N)=O)NC(=O)[C@@H]1CCCN1C(=O)[C@H](CCCNC(=N)N)NC(=O)[C@@H]1CCCN1C(=O)[C@H](Cc1c[nH]c2ccccc12)NC(=O)[C@H](CC(C)C)NC(=O)[C@@H]1CCC(=O)N1)C(=O)N1CCC[C@H]1C(=O)N1CCC[C@H]1C(=O)O [Decapeptide II, Glp-Leu-Trp-Pro-Arg-Pro-Gln-Ile-Pro-Pro-OH, reference compound] ([pGlu]LWPRPQIPP-OH)	causes a lowering in arterial pressure	potentiates the activity of bradykinin, prolonging the hypotensive effect thereof	10	15	15	10	15	15	–	–	–	–	–	–	–	–	–	–	–
CC(C)C[C@H](NC(=O)[C@@H]1CCC(=O)N1)C(=O)N[C@@H](Cc1c[nH]c2ccccc12)C(=O)N1CCC[C@H]1C(=O)N[C@@H](CCCN)C(=O)N1CCC[C@H]1C(=O)N[C@@H](Cc1c[nH]cn1)C(=O)N[C@H](C(=O)N1CCC[C@H]1C(=O)N1CCC[C@H]1C(=O)O)C(C)C [Decapeptide IV, Glp-Leu-Trp-Pro-Orn-Pro-His-Val-Pro-Pro-OH] ([pGlu]LWP[Orn]PHVPP-OH)	–	–	–	–	–	–	–	–	45	25	30	potentiate the activity of bradykinin	< 10	20	25	cause in vivo a hypotensive effect	–	–	–
CC[C@H](C)[C@H](NC(=O)[C@H](CCC(N)=O)NC(=O)[C@@H]1CCCN1C(=O)[C@H](CCCNC(=N)N)NC(=O)[C@@H]1CCCN1C(=O)[C@H](Cc1c[nH]c2ccccc12)NC(=O)[C@@H]1CCC(=O)N1)C(=O)N1CCC[C@H]1C(=O)N1CCC[C@H]1C(=O)O [Teprotide]	–	–	–	–	–	–	–	–	–	–	–	–	–	–	–	–	inactive when administered orally	powerful antihypertensive agent	–
CC(C)C[C@H](NC(=O)[C@@H]1CCC(=O)N1)C(=O)N[C@@H](Cc1c[nH]c2ccccc12)C(=O)N1CCC[C@H]1C(=O)N[C@@H](CCCNC(=N)N)C(=O)N1CCC[C@H]1C(=O)N[C@@H](Cc1c[nH]cn1)C(=O)N[C@H](C(=O)N1CCC[C@H]1C(=O)N1CCC[C@H]1C(=O)O)C(C)C [Decapeptide V, Glp-Leu-Trp-Pro-Arg-Pro-His-Val-Pro-Pro-OH] ([pGlu]LWPRPHVPP-OH)	–	–	–	–	–	–	–	–	30	15	30	potentiate the activity of bradykinin	< 10	15	15	cause in vivo a hypotensive effect	–	–	–
CC[C@H](C)[C@H](NC(=O)[C@H](CCC(N)=O)NC(=O)[C@@H]1CCCN1C(=O)[C@H](CCCN)NC(=O)[C@@H]1CCCN1C(=O)[C@H](Cc1c[nH]c2ccccc12)NC(=O)[C@H](CC(C)C)NC(=O)[C@@H]1CCC(=O)N1)C(=O)N1CCC[C@H]1C(=O)N1CCC[C@H]1C(=O)O [Decapeptide III, Glp-Leu-Trp-Pro-Orn-Pro-Gln-Ile-Pro-Pro-OH] ([pGlu]LWP[Orn]PQIPP-OH)	–	–	90	15	15	> 10	20	25	–	–	–	potentiates the hypotensive effect of bradykinin	–	–	–	stronger and more long-lasting hypotensive effect than decapeptide (II)	–	–	shows an eurhythmizing effect

— patent US4810779A, “Decapeptides having hypotensive action and process for their preparation” (Enichem Elastomeri S.p.A., priority 1985, dated 1989)
